# Data: patent US20240368221A1, “IMPATIENS BALSAMINA-DERIVED ANTI-BACTERIAL PEPTIDE AND ANTI-BACTERIAL COMPOSITION CONTAINING SAME” (V&CO CO., LTD., priority 2021, published 2024)
# Read-outs that look alike come from different tables or passages of the source. Where a SMILES comes first, the peptide text is derived from it.
# Experiments:
# [1] = system: L929 cells (murine fibroblast cell line); experiment: Cytotoxicity, WST-1 cell viability; format: cell-based; conditions: L929 cells, peptide 5.0 μg/mL, 24 hours
# Experimental: (§1) Specifically, cytotoxicity was evaluated using a skin cell line, L929 cells (murine fibroblast cell line). In addition, as comparative groups, Ib-AMP4 and the bee venom-derived AMP, melittin, known to be highly cytotoxic, were used. The L929 cells were cultured in RPMI 1640 medium (Gibco), which was supplemented with 10% FBS (Sigma), antibiotic-antimycotic cocktail, penicillin G (100 IU/mL), streptomycin (100 μg/mL), and amphotericin B (250 ng/ml; Gibco), at 37° C. in 5% CO2. The cells were seeded in a 96-well plate at 1×10^4 cell/well, incubated for 18 hours, treated with each peptide at 1.25 to 160 µg/mL, and then incubated for 24 hours. 10 μL of WST-1 reagent was added to 100 μL of the medium and allowed to react at 37° C. for 30 minutes, and then absorbance (A450) was measured at 450 nm using a microplate reader. Instead of the peptides, 0.1% Triton X-100 and PBS were used as positive and negative controls, respectively, and cell viability was calculated based on the following equation: % Cell viability=[(A450 in peptide solution−A450 in PBS)/(A450 in 0.1% Triton X−100-A450 in PBS)]×100. The analysis results were expressed as mean±S.D of three repeated experiments.
# [2] = Cytotoxicity, WST-1 cell viability; format: cell-based, murine; conditions: mouse, L929 cells (murine fibroblast cell line), L929 cells, 24 hours, read-out: Relative cell viability (%)
# Experimental: as §1
# [3] = system: sheep red blood cells (sRBCs); experiment: Hemolytic activity; format: cell-based; conditions: 5% sRBC, 30 minutes, room temperature
# Experimental: Specifically, hemolytic activity was analyzed using sheep red blood cells (sRBCs). In addition, as comparative groups, Ib-AMP4 and melittin were used. Defibrinated sheep blood (MB cells) was centrifuged (4,000×g, 10 min, 4° C.), washed with PBS three times, and suspended in PBS, thereby preparing an sRBC solution (10% sRBC). 5% sRBC and each peptide were mixed to have a final concentration of 1.25 to 160 μg/mL, allowed to react at room temperature for 30 minutes, and centrifuged to collect a supernatant. The absorbance (A414) of hemoglobin eluted from the red blood cells in the collected supernatant was measured at 414 nm. 0.1% Triton X−100 was used as a positive control, PBS was used as a negative control, and hemolytic activity (% Hemolysis) was calculated based on the following equation: % Hemolysis=[(A414 in peptide solution−A414 in PBS)/(A414 in 0.1% Triton X−100−A414 in PBS)]×100.
# [4] = system: Aspergillus niger KCTC 6317; format: cell-based
# Experimental: (§2) To examine the antimicrobial and antifungal activity of the six types of peptide derivatives prepared in Example 1, antimicrobial and antifungal activity was analyzed using three types of bacterial strains and two types of fungal strains.
# (§3) Specifically, to analyze antimicrobial and antifungal activity, a minimal inhibitory concentration (MIC) was measured. The three types of bacterial strains included Escherichia coli KCCM 41290, Staphylococcus aureus KCTC 1621, and Cutibacterium acnes KCTC 3314, and the two types of fungal strains included Candida albicans KCTC 17712, and Aspergillus niger KCTC 6317. The culture of Escherichia coli and Staphylococcus aureus was performed in Luria-Bertani (LB) medium (BD Difco), and the culture of Cutibacterium acnes was performed in reinforced clostridial medium (RCM, BD Difco). The culture of Candida albicans and Aspergillus niger was performed in potato dextrose (PD) medium (BD Difco). The pre-cultured microorganisms or spores were diluted in a medium to 5×10^3 CFU/mL, and each of the six types of peptide derivatives prepared in Example 1 was added at a predetermined concentration. Afterward, a bacterial strain was cultured at 37° C., a fungal strain was cultured at 25° C. for 18 to 24 hours, and optical densities (OD600) were measured using a microplate reader. Fluorescence values (Ex560 and Em600), instead of optical densities, were measured after adding a resazurin reagent to the Aspergillus niger medium to have a concentration of 100 μM. As a control, Ib-AMP4 was used, and the analysis results were expressed as the average of three repeated experiments.
# [5] = system: Candida albicans KCTC 17712; format: cell-based
# Experimental: as §2, §3
# [6] = system: Cutibacterium acnes KCTC 3314; format: cell-based
# Experimental: as §2, §3
# [7] = system: Escherichia coli KCCM 41290; format: cell-based
# Experimental: as §2, §3
# [8] = system: Staphylococcus aureus KCTC 1621; format: cell-based
# Experimental: as §2, §3
# [9] = Aspergillus niger, PD medium, 25° C., 18 to 24 hours, resazurin fluorescence
# [10] = Candida albicans, PD medium, 25° C., 18 to 24 hours, OD600
# [11] = Cutibacterium acnes, RCM, 37° C., 18 to 24 hours, OD600
# [12] = Escherichia coli, LB medium, 37° C., 18 to 24 hours, OD600
# [13] = Staphylococcus aureus, LB medium, 37° C., 18 to 24 hours, OD600
smiles,measurement,setting,value
CC[C@H](C)[C@H](NC(=O)CN)C(=O)NCC(=O)N[C@@H](C)C(=O)N[C@H](C(=O)N[C@@H](CC(C)C)C(=O)N[C@@H](CCCCN)C(=O)N[C@H](C(=O)N[C@@H](CC(C)C)C(=O)N[C@H](C(=O)N[C@H](C(=O)NCC(=O)N[C@@H](CC(C)C)C(=O)N1CCC[C@H]1C(=O)N[C@@H](C)C(=O)N[C@@H](CC(C)C)C(=O)N[C@H](C(=O)N[C@@H](CO)C(=O)N[C@@H](Cc1c[nH]c2ccccc12)C(=O)N[C@H](C(=O)N[C@@H](CCCCN)C(=O)N[C@@H](CCCNC(=N)N)C(=O)N[C@@H](CCCCN)C(=O)N[C@@H](CCCNC(=N)N)C(=O)N[C@@H](CCC(N)=O)C(=O)N[C@@H](CCC(N)=O)C(N)=O)[C@@H](C)CC)[C@@H](C)CC)[C@@H](C)O)[C@@H](C)O)C(C)C)C(C)C [Melittin],Relative cell viability (%),[1],2.1%
same,"viability at 24 h, 1.25 µg/mL",[2]; peptide 1.25 μg/mL,97.4%
same,"viability at 24 h, 2.5 µg/mL",[2]; peptide 2.5 μg/mL,51.1%
same,"viability at 24 h, 5 µg/mL",[2]; peptide 5.0 μg/mL,2.1%
same,"viability at 24 h, 10 µg/mL",[2]; peptide 10 μg/mL,0.2%
same,"viability at 24 h, 20 µg/mL",[2]; peptide 20 μg/mL,0.8%
same,"viability at 24 h, 40 µg/mL",[2]; peptide 40 μg/mL,0.3%
same,"viability at 24 h, 80 µg/mL",[2]; peptide 80 μg/mL,0.5%
same,"viability at 24 h, 160 µg/mL",[2]; peptide 160 μg/mL,0.6%
same,Hemolytic Activity (%),[3]; peptide 1.25 μg/mL,0.98%
same,Hemolytic Activity (%),[3]; peptide 2.5 μg/mL,3.40%
same,Hemolytic Activity (%),[3]; peptide 5.0 μg/mL,14.0%
same,Hemolytic Activity (%),[3]; peptide 10 μg/mL,25.02%
same,Hemolytic Activity (%),[3]; peptide 20 μg/mL,96.10%
same,Hemolytic Activity (%),[3]; peptide 40 μg/mL,99.36%
N=C(N)NCCC[C@H](NC(=O)[C@H](CCCNC(=N)N)NC(=O)[C@H](CS)NC(=O)[C@H](Cc1ccc(O)cc1)NC(=O)[C@H](CCCNC(=N)N)NC(=O)[C@H](CCCNC(=N)N)NC(=O)CNC(=O)[C@@H]1CCCN1C(=O)CN)C(N)=O [VESCA1] (H-GPGRRYCRR-NH2; N-terminus assumed),MIC,[4]; [9],60 µg/mL
same,MIC,[5]; [10],40 µg/mL
same,MIC,[6]; [11],>100 µg/mL
same,MIC,[7]; [12],>100 µg/mL
same,MIC,[8]; [13],>100 µg/mL
C[C@H](NC(=O)[C@H](Cc1ccc(O)cc1)NC(=O)[C@H](CCCNC(=N)N)NC(=O)[C@H](CCCNC(=N)N)NC(=O)CNC(=O)[C@@H]1CCCN1C(=O)CN)C(=O)N[C@@H](CCCNC(=N)N)C(=O)N[C@@H](CCCNC(=N)N)C(N)=O [VESCA2] (H-GPGRRYARR-NH2; N-terminus assumed),MIC,[4]; [9],80 µg/mL
same,MIC,[5]; [10],60 µg/mL
same,MIC,[6]; [11],>100 µg/mL
same,MIC,[7]; [12],>100 µg/mL
same,MIC,[8]; [13],>100 µg/mL
N=C(N)NCCC[C@H](NC(=O)CNC(=O)[C@H](Cc1c[nH]c2ccccc12)NC(=O)[C@H](CCC(=O)O)NC(=O)[C@@H](N)CC(=O)O)C(=O)N[C@@H](CCCNC(=N)N)C(=O)N[C@@H](CS)C(=O)N[C@@H](CS)C(=O)NCC(N)=O [VESCA-NH2] (H-DEWGRRCCG-NH2; N-terminus assumed),MIC,[4]; KCTC 6317,>100 µg/mL
same,MIC,[5]; KCTC 17712,>100 µg/mL
same,MIC,[6]; KCTC 3314,>100 µg/mL
same,MIC,[7]; KCCM 41290,>100 µg/mL
same,MIC,[8]; KCTC 1621,>100 µg/mL
N=C(N)NCCC[C@H](NC(=O)[C@H](CCCNC(=N)N)NC(=O)[C@H](CCCCN)NC(=O)[C@H](Cc1c[nH]c2ccccc12)NC(=O)[C@H](CCC(=O)O)NC(=O)[C@@H](N)Cc1ccc(O)cc1)C(=O)N[C@@H](CS)C(=O)N[C@@H](CS)C(=O)N[C@@H](CCCCN)C(N)=O [VESCA-NH4] (H-YEWKRRCCK-NH2; N-terminus assumed),MIC,[4]; KCTC 6317,>100 µg/mL
same,MIC,[5]; KCTC 17712,100 µg/mL
same,MIC,[6]; KCTC 3314,>100 µg/mL
same,MIC,[7]; KCCM 41290,>100 µg/mL
same,MIC,[8]; KCTC 1621,>100 µg/mL
CC[C@H](C)[C@H](NC(=O)[C@H](Cc1ccccc1)NC(=O)[C@H](CCCCN)NC(=O)[C@H](CCSC)NC(=O)[C@H](CCCCN)NC(=O)[C@H](CCCNC(=N)N)NC(=O)[C@H](CCCNC(=N)N)NC(=O)[C@@H](NC(=O)[C@H](Cc1c[nH]c2ccccc12)NC(=O)[C@@H](N)CCC(=O)O)C(C)C)C(=O)N[C@@H](CC(N)=O)C(=O)N[C@@H](CO)C(=O)N[C@@H](CC(C)C)C(=O)N[C@@H](Cc1ccc(O)cc1)C(=O)N[C@@H](CO)C(=O)N[C@@H](Cc1c[nH]c2ccccc12)C(N)=O [VESCA-OH3] (H-EWVRRKMKFINSLYSW-NH2; N-terminus assumed),MIC,[4]; KCTC 6317,80 µg/mL
same,MIC,[5]; KCTC 17712,100 µg/mL
same,MIC,[6]; KCTC 3314,>100 µg/mL
same,MIC,[7]; [12],40 µg/mL
same,MIC,[8]; KCTC 1621,5 µg/mL
same,antimicrobial activity (MIC),"[8]; Staphylococcus aureus, text of b72",5 µg/mL
